Where a name gives a salt, the structure may show the parent alone.
Assays:
α1a (rat) adrenoreceptor = target: T1, α1a (rat) adrenoreceptor (Rattus norvegicus, UniProt P43140); assay: [3H]-prazosin radioligand binding, cloned α1a (rat) adrenoreceptor in LTK cells; settings: cloned receptor in LTK cell membranes, [3H]prazosin 0.2 nM
T1 sequence (P43140 1-466): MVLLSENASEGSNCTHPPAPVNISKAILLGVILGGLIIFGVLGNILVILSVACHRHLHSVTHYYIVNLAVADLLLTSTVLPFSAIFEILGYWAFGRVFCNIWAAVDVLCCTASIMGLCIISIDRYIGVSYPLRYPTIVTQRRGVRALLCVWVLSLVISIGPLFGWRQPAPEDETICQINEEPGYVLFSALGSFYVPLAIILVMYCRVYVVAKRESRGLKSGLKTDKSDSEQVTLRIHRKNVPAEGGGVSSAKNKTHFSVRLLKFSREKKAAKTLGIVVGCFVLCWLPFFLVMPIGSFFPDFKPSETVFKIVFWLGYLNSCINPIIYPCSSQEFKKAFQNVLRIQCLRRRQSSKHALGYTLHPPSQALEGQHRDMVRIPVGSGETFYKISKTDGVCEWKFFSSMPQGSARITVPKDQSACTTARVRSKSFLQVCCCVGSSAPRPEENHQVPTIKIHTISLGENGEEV
From the text: (§1) The cDNA clones encoding the α1, adrenoreceptors were obtained from TULCO (Triangle Universities Licensing Consortium, Research Triangle Park, N.C.) and inserted into the eukaryotic expression vector SnaB30. In this vector, expression of the adrenoreceptor gene is under the transcriptional control of an SV40 early promoter. Positive drug selection is provided by a neomycin-resistance gene. Mouse fibroblast cells (LTK) were transfected with the α1 expression plasmids and grown in Dulbecco's modified Eagle's medium (DMEM) containing 10% fetal calf serum and 30 μM G418. […] Stable single cell clones derived from the parental lines were screened in adrenoreceptor binding assays to identify clones having high adrenoreceptor density. Roller bottle cultures of the cloned lines were used to provide cell membranes for subsequent adrenoreceptor binding characterization studies. A cell line containing the SnaB30 vector expressing the human erythropoietin gene served as a negative control.
(§2) For adrenoreceptor binding assays, large scale membrane preparations were utilized in which 6 million cells were seeded into small (450 cm^2) Coming tissue culture roller bottles. DMEM (200 mL) containing 10% fetal calf serum and 300 μM G418 were added to each roller bottle. A 95% air/5% CO2 gas mixture (sterile) was injected into each roller bottle prior to sealing, and the bottles were then incubated at 37° C. on a roller rack for 5 days. Cells were refed with fresh medium after 3 days in culture.
(§3) On the fifth day of culture, growth medium was removed from cells grown in roller bottles, and the cells were washed twice with PBS (Sigma, 120 mM NaCl, 2.7 mM KCl, 10 mM Na2HPO4-NaH2PO4, pH=7.4). Cells were detached from the roller bottles by incubating for 15 minutes at 37° C. in a Tris-EDTA solution (10 mM Tris, 100 mM NaCl, 1 mM EDTA, pH=7.4). The cell suspension from each roller bottle was decanted into tared centrifuge tubes and kept on ice. An aliquot of each cell suspension was generally taken for cell counting. Cells were centrifuged at 3000×G for 5 minutes at 2-4° C., washed with PBS and recentrifuged. The supernatant was decanted, and the pellet was weighed to determine the wet weight of cells. Cells were washed a final time in 40 vol 5 mM Tris-HCl, 5 mM EDTA, pH=7.7 and centrifuged at 40,000×G for 10 minutes (“vol” indicates volume/weight, e.g., a “vol” of 40 would indicate that the one gram of cells were washed with 40 mls of buffer). Cells were homogenized in of 50 mM Tris-HCl, 5 mM EDTA (pH=7.4) (10 mL) and diluted to 40 mL/tube. Homogenates were centrifuged at 40,000×G for 10 minutes. The supernatant was decanted and the pellets rehomogenized in 50 mM Tris-HCl (pH=7.4) and centrifuged as before.
(§4) Following equilibration, bound radioligand was separated from free on GF/B filters (presoaked in 0.5% polyethyleneimine) using ither a Brandel or Packard cell harvester. Radioactivity was determined by standard liquid scintillation techniques.

[1] = target: T2, α1b (Hamster) adrenoreceptor (Mesocricetus auratus, UniProt P18841); assay: [3H]-prazosin radioligand binding, cloned α1b (hamster) adrenoreceptor in LTK cells; settings: cloned receptor in LTK cell membranes, [3H]prazosin 0.2 nM
T2 sequence (P18841 1-515): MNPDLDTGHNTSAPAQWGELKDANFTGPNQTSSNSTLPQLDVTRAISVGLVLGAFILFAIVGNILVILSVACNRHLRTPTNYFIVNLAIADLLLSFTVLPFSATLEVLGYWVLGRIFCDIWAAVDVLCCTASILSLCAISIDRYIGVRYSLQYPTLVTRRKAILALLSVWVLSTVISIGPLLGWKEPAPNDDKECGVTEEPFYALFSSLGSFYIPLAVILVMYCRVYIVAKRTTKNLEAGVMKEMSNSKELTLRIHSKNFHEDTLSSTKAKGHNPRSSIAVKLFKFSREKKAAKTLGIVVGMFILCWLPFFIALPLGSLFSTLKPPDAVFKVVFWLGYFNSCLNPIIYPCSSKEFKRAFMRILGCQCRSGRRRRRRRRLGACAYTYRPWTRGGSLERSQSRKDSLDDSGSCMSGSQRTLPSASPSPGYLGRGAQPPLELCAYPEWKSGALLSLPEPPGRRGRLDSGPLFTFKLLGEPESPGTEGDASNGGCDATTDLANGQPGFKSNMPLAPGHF
From the text: as §1, §2, §3, §4

melting point [°C]	Ki (α1a (rat) adrenoreceptor) [nM]	Ki [1] [nM]	Compound
278 to 282	1.84	14.3	Cl.Cl.O=c1[nH]c2c(sc3cccnc32)c(=O)n1CCCN1CCN2c3ccccc3OCC2C1 (single isomer, unassigned; (+)) [Example 1, (+) 3-[3-(1,2,4a,5-tetrahydropyrazino[2,1-c][1,4]benzoxazin-3(4H)-yl)propyl]pyrido[2′,3′:4,5]thieno[3,2-d]pyrimidine-2,4(1H,3H)-dione dihydrochloride]
278 to 280	2.85	32.4	Cl.Cl.O=c1[nH]c2c(sc3cccnc32)c(=O)n1CCCCN1CCN2c3ccccc3OCC2C1 (single isomer, unassigned; (+)) [Example 3, (+) 3-[4-(1,2,4a,5-tetrahydropyrazino[2,1-c][1,4]benzoxazin-3(4H)-yl)butyl]pyrido[2′, 3′:4,5]thieno[3,2-d]pyrimidine-2,4(1H,3H)-dione dihydrochloride]
288 to 291	5.02	40.6	Cl.Cl.O=c1[nH]c2c(sc3ncccc32)c(=O)n1CCCCN1CCN2c3ccccc3OCC2C1 (single isomer, unassigned; (+)) [Example 5, (+) 3-[4-(1,2,4a,5-tetrahydropyrazino[2,1-c][1,4]benzoxazin-3(4H)-yl)butyl]pyrido[3′, 2′:4,5]thieno[3,2-d]pyrimidine-2,4(1H,3H)-dione dihydrochloride]
280 to 283	1.78	58.1	COc1cccc2c1N1CCN(CCn3c(=O)[nH]c4c(sc5ncc(Cl)nc54)c3=O)CC1CO2.Cl.Cl (single isomer, unassigned; (+)) [Example 8, (+) 3-[2-(10-methoxy-1,2,4a,5-tetrahydropyrazino[2,1-c][1,4]benzoxazin-3(4H)-yl)ethyl]-8-chloropyrazino[2′,3′:4,5]thieno[3,2-d]pyrimidine-2,4(1H,3H)-dione dihydrochloride]
–	0.29	8.32	COc1cccc2c1N1CCN(CCCCn3c(=O)[nH]c4c(sc5cccnc54)c3=O)CC1CO2 (single isomer, unassigned; (+)) [Example 14, (+) 3-[4-(10-methoxy-1,2,4a,5-tetrahydropyrazino[2,1-c][1,4]benzoxazin-3(4H)-yl)butyl]pyido [2′,3′:4,5]thieno[3,2-d]pyrimidine-2,4(1H,3H)-dione trihydrochloride]
225 to 230	0.447	13.8	COc1cccc2c1N1CCN(CCCCn3c(=O)[nH]c4c(sc5ncccc54)c3=O)CC1CO2.Cl.Cl.Cl (single isomer, unassigned; (+)) [Example 15, (+) 3-[4-(10-methoxy-1,2,4a,5-tetrahydropyrazino[2,1-c][1,4]benzoxazin-3(4H)-yl)butyl]pyrido[3′,2′:4,5]thieno[3,2-d]pyrimidine-2,4(1H,3H)-dione trihydrochloride]
301 to 302	1.24	11.8	COc1cccc2c1N1CCN(CCn3c(=O)[nH]c4c(sc5cccnc54)c3=O)CC1CO2.Cl.Cl.Cl (single isomer, unassigned; (+)) [Example 16, (+) 3-[2-(10-methoxy-1,2,4a,5-tetrahydropyrazino[2,1-c][1,4]benzoxazin-3(4H)-yl)ethyl]pyrido[2′,3′:4,5]thieno[3,2-d]pyrimidine-2,4(1H,3H)-dione trihydrochloride]
219 to 224	4.44	40.4	COc1cccc2c1N1CCN(CCCn3c(=O)[nH]c4c(sc5cccnc54)c3=O)CC1CO2.Cl.Cl.Cl (single isomer, unassigned; (+)) [Example 17, (+) 3-[3-(10-methoxy-1,2,4a,5-tetrahydropyrazino[2,1-c][1,4]benzoxazin-3(4H)-yl)propyl]pyrido[2′,3′:4,5]thieno[3,2-d]pyrimidine-2,4(1H,3H)-dione trihydrochloride]
–	19.3	24.6	O=c1[nH]c2c(sc3cccnc32)c(=O)n1CCCN1CCN2c3ccccc3OCC2C1 (single isomer, unassigned; (-)) [Example 2, (−) 3-[3-(1,2,4a,5-tetrahydropyrazino[2,1-c][1,4]benzoxazin-3(4H)-yl)propyl]pyrido[2′,3′:4,5]thieno[3,2-d]pyrimidine-2,4(1H,3H)-dione dihydrochloride]
–	6.62	26.5	O=c1[nH]c2c(sc3cccnc32)c(=O)n1CCCCN1CCN2c3ccccc3OCC2C1 (single isomer, unassigned; (-)) [Example 4, (−) 3-[4-(1.2,4a,5-tetrahydropyrazino[2,1-c][1,4benzoxazin-3(4H)-yl)butyl]pyrido[2′,3′:4,5]thieno[3,2-d]pyrimidine-2,4(1H,3H)-dione dihydrochloride]
290 to 293	9.83	27.3	Cl.Cl.O=c1[nH]c2c(sc3ncccc32)c(=O)n1CCCCN1CCN2c3ccccc3OCC2C1 (single isomer, unassigned; (-)) [Example 6, (−) 3-[4-(1,2,4a,5-tetrahydropyrazino[2,1-c][1,4]benzoxazin-3(4H)-yl)butyl]pyrido[3′, 2′:4,5]thieno[3,2-d]pyrimidine-2,4(1H,3H)-dione dihydrochloride]
297 to 298	0.864	6.89	COc1cccc2c1N1CCN(CCn3c(=O)[nH]c4c(sc5cccnc54)c3=O)CC1CO2.Cl.Cl (single isomer, unassigned; (-)) [Example 7, (−) 3-[2-(10methoxy-1,2,4a,5-tetrahydropyrazino[2,1-c][1,4]benzoxazin-3(4H)-yl)ethyl]pyrido[2′,3′:4,5]thieno[3,2-d]pyrimidine-2,4(1H,3H)-dione dihydrochloride]
–	0.24	2.71	COc1cccc2c1N1CCN(CCCCn3c(=O)[nH]c4c(sc5ncccc54)c3=O)CC1CO2 (single isomer, unassigned; (-)) [Example 11, (−) 3-[4-(10-methoxy-1,2,4a,5-tetrahydropyrazino[2,1-c][1,4]benzoxazin-3(4H)-yl)butyl]pyrido[3′,2′:4.5]thieno[3,2-d]pyrimidine-2,4(1H,3H)-dione trihydrochloride]

Compound	melting point [°C]	Ki (α1a (rat) adrenoreceptor) [nM]	Ki [1] [nM]
(−) 3-[3-(10-methoxy-1,2,4a,5-tetrahydropyrazino[2,1-c][1,4]benzoxazin-3(4H)-yl)butyl]pyrido[2′,3′:4,5]thieno[3,2-d]pyrimidine-2,4(1H,3H)-dione trihydrochloride [Example 10]	–	0.257	1.81
